Molecular target: T1, human GlyT1c transporter (Homo sapiens, UniProt P48067)
T1 sequence (P48067 1-706): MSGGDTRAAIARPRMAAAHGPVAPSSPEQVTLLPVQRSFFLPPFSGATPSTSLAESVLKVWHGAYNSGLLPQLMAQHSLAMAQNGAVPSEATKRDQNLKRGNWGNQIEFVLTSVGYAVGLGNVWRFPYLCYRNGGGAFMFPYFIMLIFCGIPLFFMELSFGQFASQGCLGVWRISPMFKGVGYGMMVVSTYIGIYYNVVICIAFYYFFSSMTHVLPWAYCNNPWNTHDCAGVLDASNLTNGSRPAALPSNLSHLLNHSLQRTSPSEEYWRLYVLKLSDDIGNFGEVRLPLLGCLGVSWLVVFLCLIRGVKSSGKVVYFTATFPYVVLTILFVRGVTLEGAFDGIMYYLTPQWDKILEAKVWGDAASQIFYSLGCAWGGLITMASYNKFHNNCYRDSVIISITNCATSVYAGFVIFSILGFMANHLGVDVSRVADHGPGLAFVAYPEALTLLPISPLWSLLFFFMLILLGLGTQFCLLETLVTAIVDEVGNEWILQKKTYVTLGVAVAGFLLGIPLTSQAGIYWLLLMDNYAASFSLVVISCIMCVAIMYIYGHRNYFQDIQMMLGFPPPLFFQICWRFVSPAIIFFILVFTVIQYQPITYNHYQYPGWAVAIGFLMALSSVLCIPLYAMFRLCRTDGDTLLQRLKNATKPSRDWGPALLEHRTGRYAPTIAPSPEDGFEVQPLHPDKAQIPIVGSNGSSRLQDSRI
Assay: Radioligand binding assays using recombinant CHO cell membranes expressing human GlyT1
Conditions: radioligand binding to human GlyT1c transporter-expressing CHO cell membranes

| Molecule | Ki | Ki (Ki) |
| --- | --- | --- |
| 2,2-difluoro-N-{(3R,4S)-4-(4-fluorophenyl)-1-[(1-methyl-1H-imidazol-4-yl)sulfonyl]pyrrolidin-3-yl}pentanamide [Example 700] | ≤ 10000 nM |  |
| 6-butoxy-N-{(3R,4S)-4-(4-fluorophenyl)-1-[(1-methyl-1H-imidazol-4-yl)sulfonyl]pyrrolidin-3-yl}pyrimidin-4-amine [Example 717] | ≤ 100 nM |  |
| Cn1cnc(S(=O)(=O)N2C[C@@H](C(=O)c3cccc(F)c3)[C@H](c3ccc(F)cc3)C2)c1 (relative stereo) [Example 301] |  | ≤ 1000 nM |
| Cn1cnc(S(=O)(=O)N2C[C@@H](c3ccccc3)[C@](C)(Nc3cc(C(F)(F)F)ccn3)C2)c1 (relative stereo) [Example 388, N-{Trans-3-methyl-1-[(1-methyl-1H-imidazol-4-yl)sulfonyl]-4-phenylpyrrolidin-3-yl}-4-(trifluoromethyl)pyridin-2-amine] |  | ≤ 100 nM |
| Cn1cnc(S(=O)(=O)N2C[C@@H](NCc3ccc(C(F)(F)F)cc3Cl)[C@H](c3ncccc3F)C2)c1 (relative stereo) [Example 761, Trans-N-[2-chloro-4-(trifluoromethyl)benzyl]-4-(3-fluoropyridin-2-yl)-1-[(1-methyl-1H-imidazol-4-yl)sulfonyl]pyrrolidin-3-amine] |  | ≤ 100 nM |
| Cn1cnc(S(=O)(=O)N2CC(c3ccccc3)C3(COC(=O)N3Cc3ccc(C(F)(F)F)cc3)C2)c1 (stereo not drawn) [Example 407, Trans-7-[(1-methyl-1H-imidazol-4-yl)sulfonyl]-9-phenyl-1-[4-(trifluoromethyl)benzyl]-3-oxa-1,7-diazaspiro[4.4]nonan-2-one] |  | ≤ 10000 nM |
| CCCCc1cn([C@H]2CN(S(=O)(=O)c3cn(C)cn3)C[C@@H]2c2ccccc2)nn1 [Example 668, 4-butyl-1-{(3R,4S)-1-[(1-methyl-1H-imidazol-4-yl)sulfonyl]-4-phenylpyrrolidin-3-yl}-1H-1,2,3-triazole] |  | ≤ 10000 nM |
| CCCCNC(=O)O[C@@H]1CN(S(=O)(=O)c2cn(C)cn2)C[C@H]1c1ccc(F)cc1 [Example 699, (3S,4R)-4-(4-fluorophenyl)-1-[(1-methyl-1H-imidazol-4-yl)sulfonyl]pyrrolidin-3-yl butylcarbamate] |  | ≤ 1000 nM |
| Cn1cnc(S(=O)(=O)N2C[C@H](c3ccc(F)cc3)[C@@H](N3CCS(=O)(=O)CC3)C2)c1 [Example 864, 4-{(3R,4S)-4-(4-fluorophenyl)-1-[(1-methyl-1H-imidazol-4-yl)sulfonyl]pyrrolidin-3-yl}thiomorpholine 1,1-dioxide] |  | ≤ 10000 nM |
| C=C(C)C1CCC(C)C(N[C@H]2CN(S(=O)(=O)c3cn(C)cn3)C[C@@H]2c2ccc(F)cc2)C1 (stereo partly drawn) [Example 867, (3R,4S)-4-(4-fluorophenyl)-1-[(1-methyl-1H-imidazol-4-yl)sulfonyl]-N-[2-methyl-5-(prop-1-en-2-yl)cyclohexyl]pyrrolidin-3-amine] |  | ≤ 100 nM |
| Cn1cnc(S(=O)(=O)N2C[C@H](NC(c3ccccc3)C(F)(F)F)[C@@H](c3ccc(F)cc3)C2)c1 (stereo partly drawn) [Example 868, (3R,4S)-4-(4-fluorophenyl)-1-[(1-methyl-1H-imidazol-4-yl)sulfonyl]-N-(2,2,2-trifluoro-1-phenylethyl)pyrrolidin-3-amine] |  | ≤ 10000 nM |
| Cn1cnc(S(=O)(=O)N2CC3CCCCC3(NC(=O)c3cccc(C(F)(F)F)c3Cl)C2)c1 (stereo not shown) [Example 870, 2-chloro-N-{2-[(1-methyl-1H-imidazol-4-yl)sulfonyl]octahydro-3aH-isoindol-3a-yl}-3-(trifluoromethyl)benzamide] |  | ≤ 100 nM |
| Cn1cnc(S(=O)(=O)N2CC3CCCCC3(NC(=O)c3ccc(Cl)cc3Cl)C2)c1 (stereo not shown) [Example 871, 2,4-dichloro-N-{2-[(1-methyl-1H-imidazol-4-yl)sulfonyl]octahydro-3aH-isoindol-3a-yl}benzamide] |  | ≤ 100 nM |

Continued, values first:

| Ki | Ki (Ki) | Molecule |
| --- | --- | --- |
| ≤ 10000 nM |  | 4-({(3R,4S)-1-[(1-methyl-1H-imidazol-4-yl)sulfonyl]-4-phenylpyrrolidin-3-yl}amino)-2,3-dihydro-1H-isoindol-1-one [Example 421] |
| ≤ 100 nM |  | 6-(cyclohexyloxy)-N-{(3R,4S)-4-(4-fluorophenyl)-1-[(1-methyl-1H-imidazol-4-yl)sulfonyl]pyrrolidin-3-yl}pyrimidin-4-amine [Example 721] |
|  | ≤ 1000 nM | Cn1cnc(S(=O)(=O)N2C[C@@H](Nc3ccc(OC(F)(F)F)c(C#N)c3)[C@H](c3ccccc3)C2)c1 (racemic) [Example 102, 5-({trans-1-[(1-methyl-1H-imidazol-4-yl)sulfonyl]-4-phenylpyrrolidin-3-yl}amino)-2-(trifluoromethoxy)benzonitrile] |
|  | ≤ 10000 nM | CCS(=O)(=O)N1C[C@@H](NC(=O)c2ccc(C(F)(F)F)cc2)[C@H](c2ccccc2)C1 (relative stereo) [Example 122, N-[trans-1-(ethylsulfonyl)-4-phenylpyrrolidin-3-yl]-4-(trifluoromethyl)benzamide] |
|  | ≤ 100 nM | Cc1cccc(CN[C@@H]2CN(S(=O)(=O)c3cn(C)cn3)C[C@H]2c2ccc(F)cc2)c1 (relative stereo) [Example 154, trans-4-(4-fluorophenyl)-N-(3-methylbenzyl)-1-[(1-methyl-1H-imidazol-4-yl)sulfonyl]pyrrolidin-3-amine] |
|  | ≤ 100 nM | Cn1cnc(S(=O)(=O)N2C[C@@H](c3ccccc3)[C@](C)(NCc3ccc(C(F)(F)F)cc3Cl)C2)c1 (relative stereo) [Example 356, Trans-N-[2-chloro-4-(trifluoromethyl)benzyl]-3-methyl-1-[(1-methyl-1H-imidazol-4-yl)sulfonyl]-4-phenylpyrrolidin-3-amine] |
|  | ≤ 10000 nM | Cn1cnc(S(=O)(=O)N2C[C@@H](c3ccccc3)[C@](CO)(NCc3ccc(C(F)(F)F)cc3)C2)c1 (relative stereo) [Example 401] |
|  | ≤ 1000 nM | Cn1cnc(S(=O)(=O)N2C[C@@H](Nc3ccc(F)c(F)c3)[C@H](c3ncccc3F)C2)c1 (relative stereo) [Example 766, Trans-N-(3,4-difluorophenyl)-4-(3-fluoropyridin-2-yl)-1-[(1-methyl-1H-imidazol-4-yl)sulfonyl]pyrrolidin-3-amine] |
|  | ≤ 100 nM | Cn1cnc(S(=O)(=O)N2C[C@@H]3c4ccccc4C[C@@]3(NCc3ccc(C(F)(F)F)cc3Cl)C2)c1 (relative stereo) [Example 885, trans-N-[2-chloro-4-(trifluoromethyl)benzyl]-2-[(1-methyl-1H-imidazol-4-yl)sulfonyl]-2,3,3a,8-tetrahydroindeno[1,2-c]pyrrol-8a(1H)-amine] |
|  | ≤ 1000 nM | Cn1cnc(S(=O)(=O)N2C[C@H](NCc3cnc(Br)s3)[C@@H](c3ccccc3)C2)c1 [Example 438, (3R,4S)-N-[(2-bromo-1,3-thiazol-5-yl)methyl]-1-[(1-methyl-1H-imidazol-4-yl)sulfonyl]-4-phenylpyrrolidin-3-amine] |
|  | ≤ 1000 nM | Cc1nc(CN[C@H]2CN(S(=O)(=O)c3cn(C)cn3)C[C@@H]2c2ccccc2)sc1Br [Example 559, (3R,4S)-N-[(5-bromo-4-methyl-1,3-thiazol-2-yl)methyl]-1-[(1-methyl-1H-imidazol-4-yl)sulfonyl]-4-phenylpyrrolidin-3-amine] |
|  | ≤ 100 nM | Cn1cnc(S(=O)(=O)N2CC(Nc3cccc(OC(F)(F)F)c3)C(C3CCCN(C4CC4)C3)C2)c1 (stereo not shown) [Example 641, 4-[-1-cyclopropylpiperidin-3-yl]-1-[(1-methyl-1H-imidazol-4-yl)sulfonyl]-N-[3-(trifluoromethoxy)phenyl]pyrrolidin-3-amine] |
|  | ≤ 1000 nM | Cn1cnc(S(=O)(=O)N2C[C@H](NCCCCC3OCC(C)(C)CO3)[C@@H](c3ccc(F)cc3)C2)c1 [Example 684] |
|  | ≤ 10 nM | Cn1cnc(S(=O)(=O)N2C[C@H](Nc3cc(OCC(F)(F)F)ccn3)[C@@H](c3ccccc3)C2)c1 [Example 809, N-{(3R,4S)-1-[(1-methyl-1H-imidazol-4-yl)sulfonyl]-4-phenylpyrrolidin-3-yl}-4-(2,2,2-trifluoroethoxy)pyridin-2-amine] |
|  | ≤ 1000 nM | CCCCC1CN([C@H]2CN(S(=O)(=O)c3cn(C)cn3)C[C@@H]2c2ccc(F)cc2)C(=O)O1 (stereo partly drawn) [Example 863, 5-butyl-3-{(3R,4S)-4-(4-fluorophenyl)-1-[(1-methyl-1H-imidazol-4-yl)sulfonyl]pyrrolidin-3-yl}-1,3-oxazolidin-2-one] |
|  | ≤ 10 nM | Cn1cnc(S(=O)(=O)N2CC3CCCCC3(NCc3ccc(C(F)(F)F)cc3Cl)C2)c1 (stereo not shown) [Example 869, N-[2-chloro-4-(trifluoromethyl)benzyl]-2-[(1-methyl-1H-imidazol-4-yl)sulfonyl]octahydro-3aH-isoindol-3a-amine] |
|  | > 10000 nM | CCCCCCN1CCCC2CN(S(=O)(=O)c3cn(C)cn3)CC21 (stereo not shown) [Example 872, 1-hexyl-6-[(1-methyl-1H-imidazol-4-yl)sulfonyl]octahydro-1H-pyrrolo[3,4-b]pyridine] |
|  | ≤ 10000 nM | Cn1cnc(S(=O)(=O)N2CC3CCCN(C(=O)c4ccc(Cl)cc4Cl)C3C2)c1 (stereo not shown) [Example 873, (2,4-dichlorophenyl){6-[(1-methyl-1H-imidazol-4-yl)sulfonyl]octahydro-1H-pyrrolo[3,4-b]pyridin-1-yl}methanone] |

From US9650334B2 (AbbVie Deutschland GmbH & Co. KG, priority 2013, dated 2017)
